The numbers were not newly measured in publication PMC7855644 (Journal of pharmaceutical sciences, 2020), which cites them from elsewhere.

Where no end group is shown, it is not given here.

The data set deals with blood brain barrier.

For TFFYGGSRGRRNNFRTEEY-NH2 [Peptide A7], the In vivo transcytosis result was “lack of in vivo transcytosis”.
